# Patent US4616008A, “Antibacterial solid composition for oral administration” (Takeda Chemical Industries, Ltd., priority 1984, dated 1986)
# Counter-ions that a name gives are not always drawn.
# Test: Test Example 3: Determination of oil/water partition coefficient (n-octanol / Sorensen buffer pH 7.0, HPLC)
# Assay type: physicochemical
# Details: dihydrochloride
# Method: A 10-ml portion, of a solution prepared by dissolving the dihydrochloride of Compound No. 1 in Sorensen buffer solution (pH 7.0) to a concentration of 100 μg/ml is placed in a 50-ml centrifuagl tube, followed by addition of 10 ml of n-octanol. After shaking at 25° C. for 10 minutes, the mixture is centrifuged and the concentration of the cephalosporin compound in the aqueous layer is determined by high performance liquid chromatography [column: μ-Bondapak C-18 produced by Waters Associates, Canada; eluent: 0.05 M ammonium sulfate solution+acetonitrile+acetic acid (400:200:1 v/v)]. A value of 0.45 μg/ml is obtained. From this value, the oil/water partition coefficient is calculated as follows: [formula]
smiles,measurement,setting,value
"CC(OC(=O)OC1CCCCC1)OC(=O)C1=C(CSc2nnnn2CCN(C)C)CS[C@@H]2[C@H](NC(=O)Cc3csc(N)n3)C(=O)N12 (stereo partly drawn) [Compound No. 1, 1-(cyclohexyloxycarbonyloxy)ethyl 7β-[2-(2-aminothiazol-4-yl)acetamido]-3-[[[1-(2-dimethylaminoethyl-1H-tetrazol-5-yl]thio]methyl]ceph-3-em-4-carboxylatedihydrochloride]",concentration of the cephalosporin compound in the aqueous layer,"initial 100 μg/ml in Sorensen buffer pH 7.0, equal volume n-octanol, 25° C., 10 minutes shaking",450 ng/mL
same,logD,"n-octanol/Sorensen buffer pH 7.0, 25° C., calculated from aqueous concentration",2.34
